The record followed here is patent US8846699B2, “Quinazoline derivatives as a multiplex inhibitor and method for the preparation thereof” (Hanmi Pharm. Co., Ltd., priority 2005, dated 2014).

In general, IC50 refers to the concentration that inhibits the measured activity by half. Lower therefore signals inhibition by little substance.

For assay [1], the system named is skin cancer cell line, A431. Briefly: Inhibitory effect on growth of cancer cell line A431, SRB. Type of assay: cell-based. As to conditions: Homo sapiens, A-431, 72 h, overexpressed EGFR1 (HER-1). An outline of the steps:
(§1)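 Growth inhibition was measured by sulforhodamine-B staining (absorbance 570 nm) of TCA-fixed cells after 72 h compound exposure at 37 °C, 5% CO2. Test concentrations ran from 10 μM in 10-fold steps to 10^−4, with DMSO below 1%, in 10% FBS DMEM.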

In assay [2] the test system is breast cancer cell line, SK-Br3. The assay is described as follows: Inhibitory effect on growth of cancer cell line SK-Br3, SRB. The class given is cell-based. As to conditions: Homo sapiens, SK-BR-3, 72 h, overexpressed EGFR2 (HER-2). An outline of the steps: as §1
The next assay addresses VEGFR2 (KDR) (Homo sapiens (Human), UniProt P35968). The assay is described as follows: VEGFR2 (KDR) enzyme assay, fluorescence polarization. Type of assay: biochemical. As to conditions: 5 μM ATP, poly(Glu, Tyr) substrate. An outline of the steps: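 Buffer: 20 mM HEPES pH 7.4 with 5 mM MgCl2, 2 mM MnCl2 and 50 μM Na3VO4. Compound (0.0001–10 μM) was premixed 10 min with VEGFR2 (200 ng/10 μl), then poly(Glu,Tyr) substrate (10 ng/ml) and 5 μM ATP were added for 1 h at room temperature. EDTA-quenched samples were read by FP after 30 min with antibody and tracer.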
A general note: In fluorescence polarisation assays a small probe gives low polarisation when free and higher when bound to something large.

Assay [3] concerns colon and rectal cancer cell line, SW-620. The assay is described as follows: Inhibitory effect on growth of cancer cell line SW-620, SRB. The class given is cell-based. As to conditions: Homo sapiens, 72 h, not having overexpressed EGFR and EGFR2. An outline of the steps: as §1
The next assay deals with EGFR1 (HER-1) (Homo sapiens (Human), UniProt P00533). Briefly: EGFR1 (HER-1) enzyme assay, fluorescence polarization. Type of assay: biochemical. As to conditions: 100 μM ATP, poly(Glu, Tyr) substrate.
Assay [4] deals with Human Umbilical Vein Endothelial Cell (HUVEC). The assay is described as follows: Inhibitory effect on growth of human umbilical vein endothelial cell (HUVEC), MTS. Type of assay: cell-based. As to conditions: Homo sapiens, 96 h, 10 ng/ml VEGF, absorbance 490 nm.

SMILES strings stand for the structures.

VEGFR2 (KDR), sequence (P35968 20-1356): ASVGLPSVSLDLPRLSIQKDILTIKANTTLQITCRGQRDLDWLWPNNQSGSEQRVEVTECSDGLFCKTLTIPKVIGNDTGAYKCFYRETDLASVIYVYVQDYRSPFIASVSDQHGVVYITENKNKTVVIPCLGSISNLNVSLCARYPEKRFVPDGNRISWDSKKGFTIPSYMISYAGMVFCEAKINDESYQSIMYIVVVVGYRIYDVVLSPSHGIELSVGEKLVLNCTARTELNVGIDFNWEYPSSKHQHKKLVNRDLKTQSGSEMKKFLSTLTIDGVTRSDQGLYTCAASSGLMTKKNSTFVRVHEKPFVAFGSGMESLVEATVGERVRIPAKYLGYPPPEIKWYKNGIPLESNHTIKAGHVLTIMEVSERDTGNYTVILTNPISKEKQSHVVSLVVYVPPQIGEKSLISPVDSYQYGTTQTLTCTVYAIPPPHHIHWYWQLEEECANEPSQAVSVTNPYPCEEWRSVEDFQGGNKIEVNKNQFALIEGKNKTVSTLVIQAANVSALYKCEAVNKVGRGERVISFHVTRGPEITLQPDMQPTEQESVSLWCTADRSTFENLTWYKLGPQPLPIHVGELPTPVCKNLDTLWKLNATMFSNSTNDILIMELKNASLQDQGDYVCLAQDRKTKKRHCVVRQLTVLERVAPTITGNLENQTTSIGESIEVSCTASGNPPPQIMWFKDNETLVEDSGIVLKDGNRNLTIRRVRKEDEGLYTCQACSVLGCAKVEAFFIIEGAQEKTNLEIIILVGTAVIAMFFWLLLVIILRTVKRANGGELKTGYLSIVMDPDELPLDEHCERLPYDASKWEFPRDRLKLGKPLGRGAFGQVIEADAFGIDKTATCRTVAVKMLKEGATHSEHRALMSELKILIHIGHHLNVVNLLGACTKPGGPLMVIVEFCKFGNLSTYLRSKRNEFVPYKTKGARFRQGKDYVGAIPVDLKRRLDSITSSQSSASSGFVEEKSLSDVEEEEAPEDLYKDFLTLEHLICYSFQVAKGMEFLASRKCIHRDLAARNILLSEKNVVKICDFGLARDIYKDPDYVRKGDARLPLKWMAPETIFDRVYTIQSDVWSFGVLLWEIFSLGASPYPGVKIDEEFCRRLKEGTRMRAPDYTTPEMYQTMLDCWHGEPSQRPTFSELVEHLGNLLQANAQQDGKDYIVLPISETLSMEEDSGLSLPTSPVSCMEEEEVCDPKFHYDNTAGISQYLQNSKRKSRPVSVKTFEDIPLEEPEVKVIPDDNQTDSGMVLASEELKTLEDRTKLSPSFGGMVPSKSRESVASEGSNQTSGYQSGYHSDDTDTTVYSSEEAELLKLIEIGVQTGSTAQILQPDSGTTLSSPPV
EGFR1 (HER-1), sequence (P00533 25-1210): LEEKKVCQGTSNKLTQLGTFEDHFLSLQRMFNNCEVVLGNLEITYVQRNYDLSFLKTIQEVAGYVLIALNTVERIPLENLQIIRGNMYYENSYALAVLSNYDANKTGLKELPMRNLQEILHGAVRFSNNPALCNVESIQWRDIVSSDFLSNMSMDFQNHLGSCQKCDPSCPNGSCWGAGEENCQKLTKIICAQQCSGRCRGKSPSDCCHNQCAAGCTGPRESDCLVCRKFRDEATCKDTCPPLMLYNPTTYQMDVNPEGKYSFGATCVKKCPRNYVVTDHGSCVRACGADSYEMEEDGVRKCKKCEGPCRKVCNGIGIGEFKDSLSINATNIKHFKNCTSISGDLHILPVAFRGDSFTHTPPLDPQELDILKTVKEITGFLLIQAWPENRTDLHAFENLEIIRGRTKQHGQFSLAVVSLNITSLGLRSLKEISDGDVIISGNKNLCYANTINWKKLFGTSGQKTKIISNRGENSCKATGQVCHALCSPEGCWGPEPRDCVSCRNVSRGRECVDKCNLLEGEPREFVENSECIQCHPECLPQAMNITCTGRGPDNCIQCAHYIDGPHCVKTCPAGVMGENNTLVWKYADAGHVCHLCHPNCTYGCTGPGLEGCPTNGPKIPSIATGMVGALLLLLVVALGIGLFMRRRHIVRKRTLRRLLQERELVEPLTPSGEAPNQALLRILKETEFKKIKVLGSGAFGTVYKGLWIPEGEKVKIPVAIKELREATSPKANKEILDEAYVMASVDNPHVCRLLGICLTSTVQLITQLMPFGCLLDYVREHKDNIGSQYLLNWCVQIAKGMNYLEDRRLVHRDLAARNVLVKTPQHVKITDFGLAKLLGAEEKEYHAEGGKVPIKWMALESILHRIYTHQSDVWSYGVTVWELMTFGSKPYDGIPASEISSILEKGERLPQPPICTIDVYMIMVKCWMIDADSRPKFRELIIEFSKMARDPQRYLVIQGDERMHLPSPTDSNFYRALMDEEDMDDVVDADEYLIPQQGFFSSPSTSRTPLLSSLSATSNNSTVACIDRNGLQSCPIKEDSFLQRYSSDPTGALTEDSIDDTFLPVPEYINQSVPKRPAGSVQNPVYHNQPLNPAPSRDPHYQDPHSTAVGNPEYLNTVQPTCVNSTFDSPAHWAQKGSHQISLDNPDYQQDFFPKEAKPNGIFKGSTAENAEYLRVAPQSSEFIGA

With `C=CC(=O)Nc1cc2c(Nc3ccc(Br)c(Cl)c3F)ncnc2cc1OCCNC(=O)CC` [Example 142, N-[4-(4-bromo-3-chloro-2-fluoro-phenylamino)-7-(2-propionylamino-ethoxy)-quinazolin-6-yl]-acrylamide], the IC50 in assay [1] was found to be 15 nM; in assay [2], 45 nM; against VEGFR2 (KDR), 106 nM; in assay [3], 10000 nM; against EGFR1 (HER-1), 14 nM; in assay [4], 132 nM.
Consider `C=CC(=O)Nc1cc2c(Nc3cc(Cl)c(Cl)cc3F)ncnc2cc1OCCN(C)C` [Example 136, N-[4-(4,5-dichloro-2-fluoro-phenylamino)-7-(2-dimethylamino-ethoxy)-quinazolin-6-yl]-acrylamide], for which the IC50 in assay [1] was 343 nM; in assay [2] it was 181 nM; at VEGFR2 (KDR) it was 856 nM; in assay [3], 2940 nM; on EGFR1 (HER-1), 321 nM; in assay [4] it was 923 nM.
Take `C=CCCOc1cc2ncnc(Nc3ccc(Br)cc3F)c2cc1NC(=O)C=C` [Example 31, N-[4-(4-bromo-2-fluoro-phenylamino)-7-but-3-enyloxy-quinazolin-6-yl]-acrylamide]: the IC50 in assay [1] was determined as 93 nM; in assay [2], 55 nM; on VEGFR2 (KDR), 523 nM; in assay [3], 2530 nM; against EGFR1 (HER-1), 90 nM; in assay [4], 686 nM.
With `C=CC(=O)Nc1cc2c(Nc3cc(Cl)c(Cl)cc3F)ncnc2cc1OCCNC(=O)COC` [Example 138, N-{4-(4,5-dichloro-2-fluoro-phenylamino)-7-[2-(2-methoxy-acetylamino)-ethoxy]-quinazolin-6-yl}-acrylamide], the IC50 was 21 nM in assay [1]; 39 nM in assay [2]; 823 nM at VEGFR2 (KDR); 721 nM in assay [3]; 20 nM against EGFR1 (HER-1); 845 nM in assay [4].
For the compound `C=CC(=O)Nc1cc2c(Nc3ccc(Br)cc3F)ncnc2cc1OCCNC(=O)CO` [Example 45, N-{4-(4-bromo-2-fluoro-phenylamino)-7-[2-(2-hydroxy-acetylamino)-ethoxy]-quinazolin-6-yl}-acrylamide], the IC50 in assay [1] amounted to 37 nM; in assay [2], 234 nM; against VEGFR2 (KDR), 325 nM; in assay [3], 10000 nM; at EGFR1 (HER-1), 32 nM; in assay [4], 350 nM.
For `C=CC(=O)Nc1cc2c(Nc3ccc(Br)cc3F)ncnc2cc1OCC1CCN(C(=O)NCCC)CC1` [Example 9, 4-[6-acryloylamino-4-(4-bromo-2-fluoro-phenylamino)-quinazolin-7-yloxymethyl]-piperidin-1-carboxylic acid propylamide], the IC50 was found to be 51 nM in assay [1]; 266 nM in assay [2]; 45 nM at VEGFR2 (KDR); 2580 nM in assay [3]; 36 nM at EGFR1 (HER-1); 48 nM in assay [4].
In the case of `C=CC(=O)Nc1cc2c(Nc3ccc(Br)cc3F)ncnc2cc1OC(C)CNC(C)=O` (stereo not drawn) [Example 80, N-[7-(2-acetylamino-1-methyl-ethoxy)-4-(4-bromo-2-fluoro-phenylamino)-quinazolin-6-yl]-acrylamide], the IC50 stood at 41 nM in assay [1]; 211 nM in assay [2]; 77 nM at VEGFR2 (KDR); 10000 nM in assay [3]; 36 nM on EGFR1 (HER-1); 109 nM in assay [4].
In the case of `C=CC(=O)Nc1cc2c(Nc3ccc(Cl)cc3Cl)ncnc2cc1OCCNC(C)=O` [Example 113, N-[7-(2-acetylamino-ethoxy)-4-(4-chloro-2-chloro-phenylamino)-quinazolin-6-yl]-acrylamide], the IC50 was 58 nM in assay [1]; 289 nM in assay [2]; 268 nM against VEGFR2 (KDR); 2200 nM in assay [3]; 49 nM at EGFR1 (HER-1); 369 nM in assay [4].
As to `C=CC(=O)Nc1cc2c(Nc3ccc(Br)c(Cl)c3F)ncnc2cc1OCCNC(=O)NC(C)(C)C` [Example 54, N-{4-(4-bromo-3-chloro-2-fluoro-phenylamino)-7-[2-(3-t-butyl-ureido)-ethoxy]-quinazolin-6-yl}-acrylamide], the IC50 amounted to 59 nM in assay [1]; 456 nM in assay [2]; 423 nM at VEGFR2 (KDR); 10000 nM in assay [3]; 45 nM on EGFR1 (HER-1); 568 nM in assay [4].
In the case of `C=CC(=O)Nc1cc2c(Nc3ccc(Br)cc3F)ncnc2cc1OCCNC(=O)C(=O)O` [Example 72, {2-[6-acryloylamino-4-(4-bromo-2-fluoro-phenylamino)-quinazolin-7-yloxy]-ethyl}-oxalamic acid], the 50% inhibitory concentration (IC50) in assay [1] worked out at 125 nM; in assay [2] it was 5410 nM; on VEGFR2 (KDR), 84 nM; in assay [3], 10000 nM; against EGFR1 (HER-1) it was 102 nM; in assay [4] it was 106 nM.
In the case of `C=CC(=O)Nc1cc2c(Nc3ccc(Br)cc3F)ncnc2cc1OCCNC(=O)C(C)C` [Example 48, N-[4-(4-bromo-2-fluoro-phenylamino)-7-(2-isobutyrylamino-ethoxy)-quinazolin-6-yl]-acrylamide], the IC50 in assay [1] is 114 nM; in assay [2], 70 nM; at VEGFR2 (KDR), 698 nM; in assay [3] it was 10000 nM; on EGFR1 (HER-1), 128 nM; in assay [4], 697 nM.
As to `C=CC(=O)Nc1cc2c(Nc3ccc(Br)cc3F)ncnc2cc1OCCCNC(=O)NCC` [Example 16, N-{4-(4-bromo-2-fluoro-phenylamino)-7-[3-(3-ethyl-ureido)-propoxy]-quinazolin-6-yl}-acrylamide], the IC50 in assay [1] is 18 nM; in assay [2], 228 nM; at VEGFR2 (KDR) it was 208 nM; in assay [3] it was 10000 nM; at EGFR1 (HER-1) it was 11 nM; in assay [4] it was 102 nM.
For the compound `C=CC(=O)Nc1cc2c(Nc3ccc(Br)cc3F)ncnc2cc1OCCNC(=O)CN1CCN(C)CC1` [Example 102, N-(4-(4-bromo-2-fluoro-phenylamino)-7-{2-[2-(4-methyl-piperazin-1-yl)-acetylamino]-ethoxy}-quinazolin-6-yl)-acrylamide], the IC50 in assay [1] worked out at 15 nM; in assay [2] it was 112 nM; against VEGFR2 (KDR), 654 nM; in assay [3] it was 727 nM; on EGFR1 (HER-1), 12 nM; in assay [4] it was 682 nM.
Regarding `C=CC(=O)Nc1cc2c(Nc3ccc(Br)cc3F)ncnc2cc1OCCNC(=O)C=NOC` [Example 73, N-{4-(4-bromo-2-fluoro-phenylamino)-7-[2-(2-methoxyimino-acetylamino)-ethoxy]-quinazolin-6-yl}-acrylamide], the IC50 is 365 nM in assay [1]; 589 nM in assay [2]; 668 nM at VEGFR2 (KDR); 10000 nM in assay [3]; 256 nM against EGFR1 (HER-1); 634 nM in assay [4].
For `C=CC(=O)Nc1cc2c(Nc3ccc(Br)cc3Cl)ncnc2cc1OCCNC(C)=O` [Example 115, N-[7-(2-acetylamino-ethoxy)-4-(4-bromo-2-chloro-phenylamino)-quinazolin-6-yl]-acrylamide], the IC50 was determined as 45 nM in assay [1]; 897 nM in assay [2]; 854 nM against VEGFR2 (KDR); 10000 nM in assay [3]; 42 nM on EGFR1 (HER-1); 934 nM in assay [4].
With `C=CC(=O)Nc1cc2c(Nc3c(F)cc(Br)cc3F)ncnc2cc1OCCNC(=O)CN(C)C` [Example 123, N-[4-(4-bromo-2,6-difluorophenylamino)-7-{2-[2-(dimethylamino)-acetamido]-ethoxy}-quinazolin-6-yl]-acrylamide], the IC50 in assay [1] stood at 181 nM; in assay [2], 126 nM; at VEGFR2 (KDR) it was 268 nM; in assay [3], 10000 nM; against EGFR1 (HER-1), 175 nM; in assay [4], 328 nM.
Consider `C=CC(=O)Nc1cc2c(Nc3ccc(Br)cc3F)ncnc2cc1OCC(CC)NC(=O)CN(C)C` (stereo not drawn) [Example 160, N-{4-(4-bromo-2-fluoro-phenylamino)-7-[2-(2-dimethylamino-acetylamino)-butoxy]-quinazolin-6-yl}-acrylamide], for which the IC50 in assay [1] turned out to be 55 nM; in assay [2], 96 nM; on VEGFR2 (KDR) it was 984 nM; in assay [3], 6550 nM; against EGFR1 (HER-1), 23 nM; in assay [4] it was 867 nM.
For `C=CC(=O)Nc1cc2c(Nc3cc(Cl)c(Cl)cc3F)ncnc2cc1OCCNC(=O)CN(C)C` [Example 140, N-{4-(4,5-dichloro-2-fluoro-phenylamino)-7-[2-(2-dimethylamino-acetylamino)-ethoxy]-quinazolin-6-yl}-acrylamide], the IC50 in assay [1] came to 8 nM; in assay [2], 57 nM; at VEGFR2 (KDR), 751 nM; in assay [3] it was 9540 nM; against EGFR1 (HER-1), 9 nM; in assay [4], 756 nM.
